Assay results from PubChem BioAssay AID248 (DTP/NCI, 2004).
“And” between values parts separate entries of the source, which are not always exact repeats. Equal values may be shown once. Toxic doses and inconclusive results are not listed. Cut-off read from the data, not from the text of the source: active = T/C of 150% or more; inactive = T/C below 125%.

Test system: L1210 leukemia ip in BDF1 mice, survival T/C
Assay: NCI In Vivo Anticancer Drug Screen. Data for tumor model L1210 Leukemia (intraperitoneal) in B6D2F1 (BDF1) mice
Details: endpoint: mean survival time, higher = longer survival
How it was run: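 Each compound was tested against a transplantable tumor grown in mice. The endpoint was survival, with treated animals benchmarked against vehicle controls as a simple ratio.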

[1] = dose: 12.5 mg/kg/injection, schedule: Q01DX009 (ip), vehicle: Klucel (hydroxypropylcellulose) (HPC)
[2] = dose: 100.0 mg/kg/injection, schedule: Q01DX001 (ip), vehicle: saline
[3] = dose: 200.0 mg/kg/injection, schedule: Q01DX001 (ip), vehicle: saline
[4] = dose: 100.0 mg/kg/injection, schedule: Q04DX003 (ip), vehicle: saline with Tween-80
[5] = dose: 200.0 mg/kg/injection, schedule: Q04DX003 (ip), vehicle: saline with Tween-80
[6] = dose: 400.0 mg/kg/injection, schedule: Q04DX003 (ip), vehicle: saline with Tween-80
[7] = dose: 100.0 mg/kg/injection, schedule: Q01DX009 (ip), vehicle: Klucel (hydroxypropylcellulose) (HPC)
[8] = dose: 100.0 mg/kg/injection, schedule: Q04DX003 (ip), vehicle: Klucel (hydroxypropylcellulose) (HPC)
[9] = dose: 200.0 mg/kg/injection, schedule: Q01DX009 (ip), vehicle: Klucel (hydroxypropylcellulose) (HPC)
[10] = dose: 200.0 mg/kg/injection, schedule: Q04DX003 (ip), vehicle: Klucel (hydroxypropylcellulose) (HPC)
[11] = dose: 400.0 mg/kg/injection, schedule: Q04DX003 (ip), vehicle: Klucel (hydroxypropylcellulose) (HPC)
[12] = dose: 100.0 mg/kg/injection, schedule: Q01DX001 (ip), vehicle: Klucel (hydroxypropylcellulose) (HPC)
[13] = dose: 200.0 mg/kg/injection, schedule: Q01DX001 (ip), vehicle: Klucel (hydroxypropylcellulose) (HPC)
[14] = dose: 400.0 mg/kg/injection, schedule: Q01DX001 (ip), vehicle: Klucel (hydroxypropylcellulose) (HPC)
[15] = dose: 100.0 mg/kg/injection, schedule: Q04DX002 (ip), vehicle: saline with Tween-80
[16] = dose: 200.0 mg/kg/injection, schedule: Q04DX002 (ip), vehicle: saline with Tween-80
[17] = dose: 400.0 mg/kg/injection, schedule: Q04DX002 (ip), vehicle: saline with Tween-80
[18] = dose: 100.0 mg/kg/injection, schedule: Q01DX001 (ip), vehicle: carboxymethylcellulose (CMC)
[19] = dose: 200.0 mg/kg/injection, schedule: Q01DX001 (ip), vehicle: carboxymethylcellulose (CMC)
[20] = dose: 400.0 mg/kg/injection, schedule: Q01DX001 (ip), vehicle: carboxymethylcellulose (CMC)
[21] = dose: 100.0 mg/kg/injection, schedule: Q04DX002 (ip), vehicle: Klucel (hydroxypropylcellulose) (HPC)

Measured: T/C

CC(=O)OCC[N+](C)(C)CCCCCCCCCC[N+](C)(C)CCOC(C)=O
inactive: dose: 3.0 mg/kg/injection, schedule: Q01DX009 (ip), vehicle: saline 100 % of control | dose: 6.25 mg/kg/injection, schedule: Q01DX009 (ip), vehicle: saline 89 % of control | [1] 97 % of control

CC(=O)/C(=C/c1ccccc1)N=P(c1ccccc1)(c1ccccc1)c1ccccc1
inactive: dose: 50.0 mg/kg/injection, schedule: Q04DX003 (ip), vehicle: saline 90 % of control | [2] 87 % of control | dose: 100.0 mg/kg/injection, schedule: Q04DX003 (ip), vehicle: saline 92 % of control | [3] 89 % of control | dose: 200.0 mg/kg/injection, schedule: Q04DX003 (ip), vehicle: saline 90 % of control

COC(=O)/C(=C\c1ccncc1)c1cccc2ccccc12
inactive: [4] 104 % of control | [5] 100 % of control | [6] 94 % of control

Cc1cc(=O)c2cccc(C)c2[nH]1
inactive: [7] 95 % of control | [8] 95 % of control | [9] 90 % of control | [10] 98 % of control | [11] 98 % of control

NC(=O)Nc1ccc(C(=O)O)cc1
inactive: [12] 95 % of control | [8] 100 % of control | [13] 91 % of control | [10] 97 % of control | [14] 98 % of control | [11] 98 % of control

COc1ccc(CCN2C(=O)c3cccc4c(Sc5ccccc5[N+](=O)[O-])ccc(c34)C2=O)cc1OC
inactive: [15] 90 % of control | [16] 111 % of control | [17] 93 % of control

CC(C)(C)C1=CC(C)([N+](=O)[O-])C=C(C(C)(C)C)C1=O
inactive: [18] 88 % of control | [19] 89 % of control | [20] 88 % of control

N=C(c1ccccc1)c1ccccc1
inactive: dose: 100.0 mg/kg/injection, schedule: Q01DX001 (ip), vehicle: saline with Tween-80 100 % of control | dose: 200.0 mg/kg/injection, schedule: Q01DX001 (ip), vehicle: saline with Tween-80 101 % of control | dose: 400.0 mg/kg/injection, schedule: Q01DX001 (ip), vehicle: saline with Tween-80 94 % of control

Cc1ccc2c(c1N)C(=O)c1ccccc1C2=O
inactive: [18] 103 % of control | [19] 92 % of control | [20] 96 % of control

CCCCCCCCN(C)N=Nc1ccc(C(=O)O)cc1
inactive: dose: 25.0 mg/kg/injection, schedule: Q04DX003 (ip), vehicle: other 93 % of control | dose: 50.0 mg/kg/injection, schedule: Q04DX003 (ip), vehicle: other 90 % of control | [7] 102 % of control | dose: 100.0 mg/kg/injection, schedule: Q04DX003 (ip), vehicle: other 92 % of control | [9] 102 % of control | dose: 200.0 mg/kg/injection, schedule: Q04DX003 (ip), vehicle: other 90 % of control | dose: 300.0 mg/kg/injection, schedule: Q01DX009 (ip), vehicle: Klucel (hydroxypropylcellulose) (HPC) 98 % of control | dose: 400.0 mg/kg/injection, schedule: Q01DX009 (ip), vehicle: Klucel (hydroxypropylcellulose) (HPC) 122 % of control and 90 % of control | dose: 400.0 mg/kg/injection, schedule: Q04DX003 (ip), vehicle: other 95 % of control | dose: 600.0 mg/kg/injection, schedule: Q01DX009 (ip), vehicle: Klucel (hydroxypropylcellulose) (HPC) 98 % of control

O=C(OCc1ccccc1CN1CCCCC1)c1ccccc1
inactive: dose: 25.0 mg/kg/injection, schedule: Q04DX002 (ip), vehicle: Klucel (hydroxypropylcellulose) (HPC) 97 % of control | dose: 50.0 mg/kg/injection, schedule: Q04DX002 (ip), vehicle: Klucel (hydroxypropylcellulose) (HPC) 101 % of control | [21] 97 % of control

CC(Cl)CO (stereo unspecified)
inactive: dose: 75.0 mg/kg/injection, schedule: Q01DX001 (ip), vehicle: carboxymethylcellulose (CMC) 108 % of control | dose: 150.0 mg/kg/injection, schedule: Q01DX001 (ip), vehicle: carboxymethylcellulose (CMC) 97 % of control | dose: 300.0 mg/kg/injection, schedule: Q01DX001 (ip), vehicle: carboxymethylcellulose (CMC) 97 % of control

CN(C)C1CCC(C=C(C2CCC(CC(=O)O)CC2)C2CCC(CC(=O)O)CC2)CC1 (stereo unspecified)
inactive: [15] 111 % of control | [16] 101 % of control | [17] 105 % of control

O=C(O)/C=C/c1nc2ccccc2nc1-c1ccccc1
inactive: [21] 101 % of control | dose: 200.0 mg/kg/injection, schedule: Q04DX002 (ip), vehicle: Klucel (hydroxypropylcellulose) (HPC) 113 % of control | dose: 400.0 mg/kg/injection, schedule: Q04DX002 (ip), vehicle: Klucel (hydroxypropylcellulose) (HPC) 101 % of control

Clc1ccc(SCN(CSc2ccc(Cl)cc2)Cc2ccccc2)cc1
inactive: [2] 91 % of control | [3] 90 % of control

Cc1ccc(OCCOc2ccc([N+](=O)[O-])cc2)cc1
inactive: [8] 96 % of control | [10] 93 % of control | [11] 91 % of control

CC(=O)N1CCN(C(C)=O)C1=S
inactive: [12] 96 % of control | [13] 95 % of control | [14] 98 % of control

C/C=C/C(O)(C(=O)OCC)C(C)C (stereo unspecified)
inactive: [2] 111 % of control | [3] 96 % of control | dose: 400.0 mg/kg/injection, schedule: Q01DX001 (ip), vehicle: saline 100 % of control

CC(=O)Nc1ccc(S(=O)(=O)NC(=O)NC(C)C)cc1
inactive: [4] 103 % of control | [5] 97 % of control | [6] 100 % of control

O=C(CC(c1ccccc1)C(C(CC(=O)c1ccccc1)c1ccccc1)[N+](=O)[O-])c1ccccc1 (stereo unspecified)
inactive: [18] 92 % of control | [8] 87 % of control | [19] 95 % of control | [10] 89 % of control | [20] 92 % of control | [11] 86 % of control

C[P+](C)(c1ccccc1)c1ccccc1
inactive: dose: 3.12 mg/kg/injection, schedule: Q01DX009 (ip), vehicle: saline with Tween-80 108 % of control | dose: 6.25 mg/kg/injection, schedule: Q01DX009 (ip), vehicle: saline with Tween-80 101 % of control | dose: 12.5 mg/kg/injection, schedule: Q01DX009 (ip), vehicle: saline with Tween-80 97 % of control | dose: 12.5 mg/kg/injection, schedule: Q04DX003 (ip), vehicle: saline with Tween-80 102 % of control

OCC1=CCN(CCc2c[nH]c3ccccc23)CC1
inactive: [4] 95 % of control | [5] 88 % of control | [6] 94 % of control

C=C1C(=O)OC2C3OC(C)(CCC(O)C3COC(C)=O)CC(OC(=O)/C(=C/C)COC(C)=O)C12 (stereo unspecified)
inactive: dose: 6.25 mg/kg/injection, schedule: Q01DX009 (ip), vehicle: Klucel (hydroxypropylcellulose) (HPC) 100 % of control | [1] 97 % of control | dose: 25.0 mg/kg/injection, schedule: Q01DX009 (ip), vehicle: Klucel (hydroxypropylcellulose) (HPC) 103 % of control
